The target of test [1] is T1, α1 GABAA receptor (Homo sapiens, UniProt P14867+P18507).
T1 construct: expressed in transfected cells; host or cells: HEK cells
As to the kind of experiment: Modulation of GABA induced currents in HEK cells. The class given is cell-based. Conditions: 0.1 to 100 μM. The method, then:
(§1) In this study, we assessed the functional capacity of βCCt to competitively antagonize the anxiolytic versus the sedative properties of the prototypical BDZ, chlordiazepoxide.
(§2) FIGS. 21-26 represent the molecular biology data in α1-α6 GABAA receptors. […] In other words, βCCt behaves like chlordiazepoxide at the anxiety receptors. It is important to note that these effects occur at 50-100 μM, and would most likely be observed at moderate doses.

Test [2] has as its target T2, α2 GABAA receptor (Homo sapiens, UniProt P18507+P47869).
T2 construct: expressed in transfected cells; host or cells: HEK cells
Description: Modulation of GABA induced currents in HEK cells. Format: cell-based. The method, then:
as §1, §2

The target in test [3] is T3, α3 GABAA receptor (Homo sapiens, UniProt P18507+P34903).
T3 construct: expressed in transfected cells; host or cells: HEK cells
T3 sequence (P34903 29-492): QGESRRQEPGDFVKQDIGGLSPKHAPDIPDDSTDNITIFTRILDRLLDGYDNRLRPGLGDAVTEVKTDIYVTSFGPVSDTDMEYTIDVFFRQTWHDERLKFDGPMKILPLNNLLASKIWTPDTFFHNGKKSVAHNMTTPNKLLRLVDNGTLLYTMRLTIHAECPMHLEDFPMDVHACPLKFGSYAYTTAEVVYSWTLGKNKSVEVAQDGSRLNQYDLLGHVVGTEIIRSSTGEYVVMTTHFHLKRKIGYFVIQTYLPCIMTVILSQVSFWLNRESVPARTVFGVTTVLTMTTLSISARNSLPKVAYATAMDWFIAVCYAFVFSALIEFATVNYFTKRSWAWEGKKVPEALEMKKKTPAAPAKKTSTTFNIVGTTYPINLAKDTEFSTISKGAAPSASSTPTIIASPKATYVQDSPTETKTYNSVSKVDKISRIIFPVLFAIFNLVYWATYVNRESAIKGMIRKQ
T3 sequence (P28472 26-473 partner): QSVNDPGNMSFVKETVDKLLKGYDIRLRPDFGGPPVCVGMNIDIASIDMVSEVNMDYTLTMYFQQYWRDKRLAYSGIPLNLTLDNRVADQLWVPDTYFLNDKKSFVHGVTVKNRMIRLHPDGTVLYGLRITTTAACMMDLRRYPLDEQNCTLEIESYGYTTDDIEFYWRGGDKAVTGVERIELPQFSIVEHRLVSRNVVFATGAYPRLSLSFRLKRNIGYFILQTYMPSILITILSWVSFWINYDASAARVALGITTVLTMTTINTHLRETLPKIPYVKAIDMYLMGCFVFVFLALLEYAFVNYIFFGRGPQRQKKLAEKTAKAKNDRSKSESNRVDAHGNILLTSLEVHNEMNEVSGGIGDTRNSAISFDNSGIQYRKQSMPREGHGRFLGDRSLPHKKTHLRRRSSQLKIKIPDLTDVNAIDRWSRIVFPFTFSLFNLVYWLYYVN
T3 sequence (P18507 40-475): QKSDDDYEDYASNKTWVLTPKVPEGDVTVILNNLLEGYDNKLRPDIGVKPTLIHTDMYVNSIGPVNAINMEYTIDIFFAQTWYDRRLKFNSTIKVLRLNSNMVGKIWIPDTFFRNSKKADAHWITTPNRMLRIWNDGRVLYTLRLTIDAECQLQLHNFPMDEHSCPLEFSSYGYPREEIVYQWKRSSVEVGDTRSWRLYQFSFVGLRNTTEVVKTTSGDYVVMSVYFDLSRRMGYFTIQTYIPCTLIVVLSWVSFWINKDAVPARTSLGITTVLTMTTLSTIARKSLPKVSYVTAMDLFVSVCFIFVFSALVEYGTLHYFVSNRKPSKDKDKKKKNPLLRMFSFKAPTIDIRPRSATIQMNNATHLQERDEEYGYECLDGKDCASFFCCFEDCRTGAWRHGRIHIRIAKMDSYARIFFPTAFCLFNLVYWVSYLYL
As to the kind of experiment: Modulation of GABA induced currents in HEK cells. Format: cell-based. The protocol: as §1, §2

Test [4] addresses T4, α4 GABAA receptor (Homo sapiens, UniProt P18507+P48169).
T4 construct: expressed in transfected cells; host or cells: HEK cells
Description: Modulation of GABA induced currents in HEK cells. Format: cell-based. Conditions: 0.1 to 100 μM. The protocol: as §1, §2

For test [5], the target named is T5, α5 GABAA receptor (Homo sapiens, UniProt P18507+P31644).
T5 construct: expressed in transfected cells; host or cells: HEK cells
T5 sequence (P31644 32-462): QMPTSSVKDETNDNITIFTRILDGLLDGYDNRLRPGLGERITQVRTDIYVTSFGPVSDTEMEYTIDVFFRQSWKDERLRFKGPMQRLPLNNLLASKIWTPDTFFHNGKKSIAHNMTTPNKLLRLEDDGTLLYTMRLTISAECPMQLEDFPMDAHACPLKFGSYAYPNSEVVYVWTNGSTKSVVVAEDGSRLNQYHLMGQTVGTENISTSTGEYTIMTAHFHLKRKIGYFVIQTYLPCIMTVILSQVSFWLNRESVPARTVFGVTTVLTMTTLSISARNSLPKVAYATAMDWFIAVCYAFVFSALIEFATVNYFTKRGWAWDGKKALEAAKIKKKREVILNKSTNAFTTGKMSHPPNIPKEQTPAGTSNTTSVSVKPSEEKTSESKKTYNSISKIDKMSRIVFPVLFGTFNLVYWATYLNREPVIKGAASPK
T5 sequence (P28472 26-473 partner): as the sequence (P28472 26-473 partner) above
T5 sequence (P18507 40-475): as the sequence (P18507 40-475) above
Description: Modulation of GABA induced currents in HEK cells. Format: cell-based. Particulars: 0.1 to 100 μM. The method, then:
as §1, §2

Test [6] concerns the target T6, α6 GABAA receptor (Homo sapiens, UniProt P18507+Q16445).
T6 construct: expressed in transfected cells; host or cells: HEK cells
As to the kind of experiment: Modulation of GABA induced currents in HEK cells. The class given is cell-based. Conditions: 0.1 to 100 μM. The method, then:
as §1, §2

The subject of test [7] is high-alcohol drinking (HAD-1) rats. Description: Operant self-administration, EtOH (and alternate-day sucrose). Format: in vivo, rat. The protocol: Operant, Self-administration Apparatus, Training, and Drug Treatment Procedures Behavioral Testing Apparatus. Behavioral testing was conducted in 15 standard operant chambers (Coulbourn Instruments, Allentown, Pa.) equipped with two removable levers and two dipper fluid delivery systems enclosed in sound-attenuated cubicles as previously described (June et al., 1998b; 1998e). All dipper presentations provided a 1.5-sec access to a 0.1-ml dipper, followed by a 3-sec time out period. Above each lever, three stimulus lights (red, green and yellow) were present, and a stimulus delivery/reinforcer was indicated by illumination of the middle (green) stimulus light. Responses and reinforcements were recorded and controlled by a Dell computer using the 4.0 Coulbourn L2T2 operant software package.
HAD-1 Rats. To assess the capacity of βCCt to modulate EtOH responding in the VP, rats were trained to lever press for alcohol only (see below). However, an alternate-day access paradigm was employed to investigate the capacity of systemic injections of βCCt to modify EtOH and sucrose-maintained responding. […] In the VP study rats were initially trained to orally self-administer EtOH and water in daily 60 min sessions on a concurrent FRI schedule in a two-lever choice situation. After a period of stabilization on the FRI schedule, the response requirement was increased to a concurrent FR4 schedule and the water reinforcer was gradually eliminated from the protocol and replaced with EtOH. Thus, the VP HAD-1 rats responded concurrently for EtOH solutions on both levers. The VP HAD rats were then stabilized on this regimen for 3 weeks prior to any microinfusions. Responding was considered stable when responses were within ±20% of the average responses for five consecutive days.
Rats in, the systemic study were trained in a similar manner as the VP animals, except that after a 2 week stabilization period on the concurrently presented EtOH solutions, a series of preliminary studies were conducted to determine the sucrose concentration that produced response rates and profiles similar to that of EtOH during an alternate-day presentation schedule. Following this determination, rats were then stabilized on a regimen of 10% (v/v) EtOH on day 1, and 1% (w/v) sucrose on day 2. This alternate day paradigm continued until a two weeks. After this final stabilization period, the drug treatment phase began. Again, responding was considered stable when responses were within ±20% of the average responses for five consecutive days. The position of the levers and associated dippers for each reinforcer was alternated daily to control for the establishment of lever preference under all concurrent schedules when two different reinforcers were present.
βCCt was administered 15 min before the operant session to allow for optimal absorption and CNS distribution. βCCt was tested at doses of 1-40 mg/kg. The duration of the operant sessions was 60 min, however, subjects were tested at 24 and 48 hours post-drug administration to determine if any residual drug effects remained. A minimum of 72 and maximum of 96 hours was allocated between drug treatments to permit animals to return to baseline levels. This period prevented confounding of drug treatments due to residual effects. […] All systemic drug treatments were given in a randomized design.
The microinfusions were delivered immediately before the operant session with a Harvard infusion pump, during which time animals were able to move about freely in their home cages (for details see June et al., 2001). The injection cannula extended 1 mm beyond the tip of the guide cannulae. βCCt was dissolved in artificial cerebrospinal fluid (aCSF) (composition in mM: NaCl, 120; KCl, 4.8; KH2PO4, 1.2; MgSO4, 1.2; NaHCO3, 25; CaCl2, 2.5; d-glucose, 10). […]

Test [8] has as its target T7, GABAA α1β3γ2 receptors (Rattus norvegicus, UniProt P18508+P62813).
T7 construct: expressed in transfected cells; host or cells: Xenopus laevis oocytes injected with cRNA
Description: Xenopus oocyte expression assay, modulation of GABA current. The class given is cell-based. Particulars: saturating 1-10 μM modulator with EC50 GABA (50 μM); mean±S.D.

Test [9] relates to rats. As to the kind of experiment: Reversal of suppression produced by chlordiazepoxide. Format: in vivo, rat. Conditions: 7.5 & 15 mg/kg; preliminary studies.
Test [10] concerns mice. Conditions: Cox et al., 1998; cited from earlier work.

Each structure is given as a SMILES string.

T2 sequence (P47869 29-451): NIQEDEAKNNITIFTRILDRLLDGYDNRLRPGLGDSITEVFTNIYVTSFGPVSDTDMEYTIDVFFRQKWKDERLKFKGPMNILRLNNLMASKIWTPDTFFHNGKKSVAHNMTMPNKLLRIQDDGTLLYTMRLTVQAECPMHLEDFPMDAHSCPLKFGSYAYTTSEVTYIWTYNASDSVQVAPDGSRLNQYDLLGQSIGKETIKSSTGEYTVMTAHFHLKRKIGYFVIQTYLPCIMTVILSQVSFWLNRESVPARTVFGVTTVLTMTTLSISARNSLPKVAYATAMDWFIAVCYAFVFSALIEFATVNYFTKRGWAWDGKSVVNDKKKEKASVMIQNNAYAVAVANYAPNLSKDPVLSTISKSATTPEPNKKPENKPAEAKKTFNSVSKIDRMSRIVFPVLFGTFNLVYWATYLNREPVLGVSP
T2 sequence (P28472 26-473 partner): as the sequence (P28472 26-473 partner) above
T2 sequence (P18507 40-475): as the sequence (P18507 40-475) above
T1 sequence (P14867 28-456): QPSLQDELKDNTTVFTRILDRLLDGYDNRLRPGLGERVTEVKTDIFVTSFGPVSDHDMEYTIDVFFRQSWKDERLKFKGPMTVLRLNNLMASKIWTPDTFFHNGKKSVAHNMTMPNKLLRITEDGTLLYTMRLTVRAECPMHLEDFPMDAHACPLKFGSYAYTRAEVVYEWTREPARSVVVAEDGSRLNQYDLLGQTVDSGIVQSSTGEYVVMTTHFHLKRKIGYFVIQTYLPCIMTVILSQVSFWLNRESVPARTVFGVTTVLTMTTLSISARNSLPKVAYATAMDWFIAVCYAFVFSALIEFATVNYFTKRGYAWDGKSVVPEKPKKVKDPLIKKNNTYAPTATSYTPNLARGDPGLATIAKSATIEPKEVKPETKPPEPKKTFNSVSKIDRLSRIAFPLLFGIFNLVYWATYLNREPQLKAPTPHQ
T1 sequence (P28472 26-473 partner): as the sequence (P28472 26-473 partner) above
T1 sequence (P18507 40-475): as the sequence (P18507 40-475) above
T6 sequence (Q16445 20-453): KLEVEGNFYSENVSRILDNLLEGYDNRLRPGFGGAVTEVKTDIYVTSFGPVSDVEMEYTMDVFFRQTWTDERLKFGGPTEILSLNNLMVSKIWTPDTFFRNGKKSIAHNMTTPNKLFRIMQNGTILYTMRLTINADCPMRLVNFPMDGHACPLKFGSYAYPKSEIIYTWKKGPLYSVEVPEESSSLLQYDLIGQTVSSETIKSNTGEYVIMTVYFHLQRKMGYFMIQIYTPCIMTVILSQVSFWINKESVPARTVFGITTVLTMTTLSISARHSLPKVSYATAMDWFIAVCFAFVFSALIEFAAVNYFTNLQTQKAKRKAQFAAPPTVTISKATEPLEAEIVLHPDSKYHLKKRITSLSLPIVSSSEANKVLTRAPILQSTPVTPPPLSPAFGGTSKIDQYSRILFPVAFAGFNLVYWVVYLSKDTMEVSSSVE
T6 sequence (P28472 26-473 partner): as the sequence (P28472 26-473 partner) above
T6 sequence (P18507 40-475): as the sequence (P18507 40-475) above
T4 sequence (P48169 36-554): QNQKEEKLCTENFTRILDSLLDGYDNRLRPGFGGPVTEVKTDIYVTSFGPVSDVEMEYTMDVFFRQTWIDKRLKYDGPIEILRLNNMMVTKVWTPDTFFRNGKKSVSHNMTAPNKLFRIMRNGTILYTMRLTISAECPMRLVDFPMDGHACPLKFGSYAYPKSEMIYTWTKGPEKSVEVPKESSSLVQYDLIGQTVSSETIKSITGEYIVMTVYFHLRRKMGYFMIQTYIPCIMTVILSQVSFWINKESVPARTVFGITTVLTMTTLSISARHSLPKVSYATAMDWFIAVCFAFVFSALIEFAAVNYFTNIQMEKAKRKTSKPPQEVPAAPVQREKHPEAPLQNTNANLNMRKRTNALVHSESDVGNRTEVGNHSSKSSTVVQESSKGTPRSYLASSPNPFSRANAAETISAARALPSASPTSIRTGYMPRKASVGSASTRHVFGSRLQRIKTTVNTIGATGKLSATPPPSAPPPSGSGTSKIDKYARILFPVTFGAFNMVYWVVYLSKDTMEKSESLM
T4 sequence (P28472 26-473 partner): as the sequence (P28472 26-473 partner) above
T4 sequence (P18507 40-475): as the sequence (P18507 40-475) above

For the molecule `CC(C)(C)OC(=O)c1cc2c(cn1)[nH]c1ccccc12` [βCCt, β-carboline-3-carboxylate t-butyl ester], in test [1], the “activity at the α1 receptor in HEK cells” value is “Agonist and inverse-agonist activity”; the “intrinsic activity in HEK cells, α1” value was “Intrinsic activity is seen”. Besides, in [2] (0.1 to 100 μM), the “activity at the α2 receptor in HEK cells” value was “Strong agonist activity” and the “intrinsic activity in HEK cells, α2” value was “Intrinsic activity is seen”. Besides, in test [2] (HEK cells), the “concentration at which agonist-like effects occur, α2” value is 50 to 100 µM. Also, the “activity at the α3 receptor in HEK cells” value in [3] (0.1 to 100 μM) is “Strong agonist activity”. In addition, the “concentration at which agonist-like effects occur, α3” value in test [3] (HEK cells) fell in the range of 50 to 100 µM. Moreover, in [4], the “activity at the α4 receptor in HEK cells” value is listed as “Moderate agonist activity” and the “intrinsic activity in HEK cells, α4” value is listed as “Intrinsic activity is seen”. In [5], the “activity at the α5 receptor in HEK cells” value was “Agonist and inverse-agonist activity”; the “intrinsic activity in HEK cells, α5” value is “Intrinsic activity is seen”. For the same molecule, in test [6], the “activity at the α6 receptor in HEK cells” value was “Minimal agonist activity” and the “intrinsic activity in HEK cells, α6” value is recorded as “Intrinsic activity is seen”. Besides, the “dose required to reduce sucrose reinforcer compared to alcohol” value in test [7] (i.p.) is on record as “four-fold higher dose”. The sucrose-maintained responding result in test [7] (i.p. 10 mg/kg) is on record as “marked suppression”. Moreover, in test [7] (i.p. 1-10 mg/kg, alternate-day access), the EtOH-maintained responding result is recorded as “dose-dependently suppressed”. Moreover, the “reduction of EtOH responding 24 hr post-drug” value in [7] (unilateral VP infusion 2.5-7.5 μg, 24 hr post-drug administration) is recorded as 54-63 % of control levels. For the same molecule, the EtOH-maintained responding result in [7] (unilateral infusion 0.5-7.5 μg into VP) is reported as “dose-dependently reduced”. The alcohol-maintained responding result in test [7] (unilateral infusion into CPu/NACC) was “completely ineffective”.
On to `CCCOc1cc2c(cn1)[nH]c1ccccc12.Cl` [3-PBC, 3-Propoxy-β-carboline hydrochloride], for which the “% of GABA response, α1” value in test [8] is reported as 113±4%. Also, in [9], the “reversal of suppression produced by chlordiazepoxide (2.5-10 mg/kg)” value is reported as “reversed the suppression produced by chlordiazepoxide”. For the same molecule, the “response in pentylenetetrazole seizure model” value in test [10] was ““neutral” antagonist-like response”.

(Values after patent US20030176456A1, “Methods for reducing alcohol cravings in chronic alcoholics” (priority 2001, published 2003).)
